Patent US6551774B1, “Diagnostic methods for conditions associated with elevated cellular levels of telomerase activity” (Board of Regents, The University of Texas System, priority 1992, dated 2003)
Where a name gives a salt, the structure may show the parent alone. Read-outs that look alike come from different tables or passages of the source. Values belong to the compound of their own block, whether it stands above or below them.

What was measured:
Tetrahymena cells [1] = assay: Progeny formation (cycloheximide resistance) of Tetrahymena conjugated in the presence of analog; assay type: cell-based, Tetrahymena thermophila; conditions: for % CHX-R: 0.017 mM analog (head prints MM)
Protocol: For analysis of cycloheximide (CHX) sensitivity of cells conjugated in the presence of analog, 50 ml cultures of each cell type were grown overnight in 2% PPYS, starved in Dryl's for 18 hours, mated (5×10^5 cells/ml) for 6 hours, then analog was added. Cells were allowed to complete mating in the presence of the analog. Twenty-four hours after mixing, cells were diluted in Dryl's solution, counted and plated at 1 cell per well of 96-well plates in 1% PPYS without analog. Cells were grown for 4 days in a humid chamber at 30° C., without shaking. Cells were then replica plated into 1% PPYS plus 15 μg/ml cycloheximide, allowed to grow for four days before scoring, and percent of CHX-resistant wells was calculated. Because generation of progeny expressing the cycloheximide marker requires successful production of a new macronucleus, cells whose macronuclear development was disrupted by the analog are killed in CHX.
This process involves de novo formation of new macronuclear telomeres in the progeny cells. Macronuclear development in ciliated protozoans such as Tetrahymena involves developmentally programmed, site-specific fragmentation of germline chromosomes into linear subchromosomes, whose ends are healed by de novo addition of telomeres. […] Because of the immediate requirement for telomere addition to fragmented DNA, it is possible that the latter process might be more sensitive to telomerase inhibition than telomere maintenance during vegetative growth. To test whether nucleoside analogs cause inhibition of macronuclear development due to a disruption of telomere formation, we mated two strains of Tetrahymena which are sensitive to cycloheximide, but whose progeny after mating are resistant to cycloheximide. Synchronized mated cells were treated with AZT at concentrations ranging from 10 μM to 5 mM for a period beginning just prior to when macronuclear development begins and continuing during macronuclear development (the period 6-24 hours after mating was initiated). […] In attempts to maximize the effect of AZT, cells were either refed at 6 hrs with 2% PPYS or Isobroth, or starved until 24 hrs (the duration of the AZT treatment). Such starvation arrests macronuclear development at an intermediate stage. When refed, macronuclear development would then be forced to proceed in the presence of the AZT. Control, unmated parental cells were also plated and exposed to drug.

[2] = molecular target: T1, Tetrahymena thermophila telomerase (Tetrahymena thermophila, UniProt O77448); assay: Tetrahymena telomerase in vitro assay (incorporation of 32P label, gel of products); assay type: biochemical; conditions: for position on the telomerase RNA template of strongest chain termination: template residues numbered 1 to 9 (5′ to 3′); for Km: from competition of unlabeled with 32P-labeled nucleotide; for effect on the telomerase reaction: dideoxynucleoside triphosphates
T1 construct: A standard assay contained 50% by volume of heparin-agarose purified telomerase; endogenous in cells; host or cells: Tetrahymena thermophila cell extracts, heparin-agarose purified
T1 sequence (O77448 1-1117): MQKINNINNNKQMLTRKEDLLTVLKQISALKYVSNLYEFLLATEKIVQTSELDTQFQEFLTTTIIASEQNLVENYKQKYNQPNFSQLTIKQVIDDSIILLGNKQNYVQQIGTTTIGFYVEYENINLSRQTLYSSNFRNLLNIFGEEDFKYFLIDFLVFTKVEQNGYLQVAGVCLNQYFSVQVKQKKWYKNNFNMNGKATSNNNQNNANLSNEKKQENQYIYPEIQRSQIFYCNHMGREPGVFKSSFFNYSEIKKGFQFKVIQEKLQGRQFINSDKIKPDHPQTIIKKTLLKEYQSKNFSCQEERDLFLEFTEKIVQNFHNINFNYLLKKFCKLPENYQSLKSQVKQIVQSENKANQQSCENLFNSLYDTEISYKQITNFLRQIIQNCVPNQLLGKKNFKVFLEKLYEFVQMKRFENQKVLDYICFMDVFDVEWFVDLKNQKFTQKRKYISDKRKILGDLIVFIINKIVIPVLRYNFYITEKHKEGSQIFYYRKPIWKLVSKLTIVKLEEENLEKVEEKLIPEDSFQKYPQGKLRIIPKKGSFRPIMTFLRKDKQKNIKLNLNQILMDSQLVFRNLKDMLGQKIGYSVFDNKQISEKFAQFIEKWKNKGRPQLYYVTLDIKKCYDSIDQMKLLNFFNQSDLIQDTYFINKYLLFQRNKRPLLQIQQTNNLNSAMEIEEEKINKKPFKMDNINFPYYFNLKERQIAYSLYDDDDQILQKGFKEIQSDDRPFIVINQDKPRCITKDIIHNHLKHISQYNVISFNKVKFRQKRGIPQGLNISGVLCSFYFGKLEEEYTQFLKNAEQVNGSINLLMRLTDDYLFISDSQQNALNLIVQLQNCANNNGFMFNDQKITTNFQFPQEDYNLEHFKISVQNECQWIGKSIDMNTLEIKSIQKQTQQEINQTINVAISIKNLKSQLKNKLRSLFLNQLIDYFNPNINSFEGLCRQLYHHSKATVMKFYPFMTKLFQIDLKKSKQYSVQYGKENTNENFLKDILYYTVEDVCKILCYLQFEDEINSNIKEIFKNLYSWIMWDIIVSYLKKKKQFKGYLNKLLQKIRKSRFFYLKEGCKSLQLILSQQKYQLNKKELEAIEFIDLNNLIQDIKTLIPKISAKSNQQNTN
T1 sequence (W7X6T2 1-542 partner): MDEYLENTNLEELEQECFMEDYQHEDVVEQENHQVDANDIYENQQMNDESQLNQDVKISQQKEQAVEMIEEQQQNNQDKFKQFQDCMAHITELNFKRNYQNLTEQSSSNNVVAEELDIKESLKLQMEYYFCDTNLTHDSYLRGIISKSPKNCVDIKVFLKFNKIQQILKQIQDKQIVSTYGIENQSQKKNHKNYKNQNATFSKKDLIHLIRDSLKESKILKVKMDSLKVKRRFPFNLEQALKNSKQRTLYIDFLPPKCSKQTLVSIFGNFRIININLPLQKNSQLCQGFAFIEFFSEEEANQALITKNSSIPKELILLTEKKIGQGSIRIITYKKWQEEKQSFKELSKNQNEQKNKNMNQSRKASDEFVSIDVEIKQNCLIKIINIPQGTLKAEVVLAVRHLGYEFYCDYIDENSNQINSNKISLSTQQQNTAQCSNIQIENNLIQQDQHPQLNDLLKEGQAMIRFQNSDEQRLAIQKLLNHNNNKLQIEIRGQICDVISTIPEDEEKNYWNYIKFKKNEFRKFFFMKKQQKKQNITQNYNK
Protocol: AZT-triphosphate was obtained from Burroughs Wellcome, N.C. Ara-G-triphosphate was purchased from Calbiochem and ddNTPs from Sigma. Reaction mixes were kept on ice until ready for use, and then mixed into tubes containing analog for incubation at 30° C. Reaction times were thirty minutes. […] Identical reactions were run without primers as controls. […] Incorporation of ^32P label from either ^32P-TTP or ^32P-dGTP was measured to monitor the reaction rate.
The standard telomerase assay used in this example consists of incorporation of dGTP and TTP substrates, one triphosphate ^32P-labeled, into synthesized DNA in the reaction shown in FIG. 18A. […] Incorporation of ^32P label from either ^32P-TTP or ^32P-dGTP was measured to monitor the reaction rate, and the distributions of elongation products were analyzed by denaturing polyacrylamide gel electrophoresis.

Tetrahymena cells [3] = assay: Telomere length in vegetatively grown Tetrahymena by Southern blot; assay type: cell-based, Tetrahymena thermophila; conditions: 100 μM and 1 mM in Isobroth, after 5 days (16 generations)
Protocol: For analysis of macronuclear DNA from cultures containing the nucleoside analog AZT (Sigma), or controls lacking analog, at various timepoints during vegetative divisions, cells from stationary stock cultures were inoculated into 25 ml thymine-deficient Iso-sensitest broth (‘Isobroth’, Oxoid USA) in 250 ml flasks. Cultures were incubated at 30° C. with shaking (100 rpm) for 48 hours. Cells were counted and plated at 1000 cells/1.5 ml in 24-well plates (Falcon) and grown at 30° C., without shaking, for 48 hours. 5 μl of these log phase cells were used to inoculate 1 ml cultures (Isobroth) containing varied concentrations of nucleoside analog. Thereafter, every 2-4 days cells were transferred, either 5 μl per well, or 1-3 μl using a multi-pronged replicator into fresh 1 ml broth containing AZT. Remaining cells were pelleted and stored at −80° C. until processed for DNA analysis.
For analysis of macronuclear DNA from vegetative cultures containing the nucleoside analogs Ara-G (Calbiochem), ddG (Calbiochem), or ddI (Calbiochem), or controls lacking analog, stock cultures were grown overnight in 2% PPYS as described. Cells were counted and plated at 100 cells/2 ml in 2% PPYS containing varied amounts of analog, 1% DMSO (Fisher) (as a control for ddG and Ara-G), or 2% PPYS alone. Cells were replica plated into fresh medium every 2-6 days, and remaining cells were pelleted and stored at −80° C. until processed for DNA analysis.
For analysis of macronuclear DNA from vegetative cultures containing d4T (Sigma) or control lacking the analog, stock cultures (SB210 VI) were grown overnight in Isobroth as described. Cells were then counted and duplicate cultures inoculated at 500 cells/5 ml Isobroth in 50 ml conical tubes, and grown at 30° C., shaking 80 rpm. 500-2000 cells were transfered to fresh broth every 2-4 days, and the remainder pelleted and stored at −80° C. until processed for DNA analysis.
Restriction digests, agarose gel electrophoresis, transfer of DNA to Nytran filters (Schleicher and Schuell), and hybridization with ^32P-nick-trapplated or random-primed probes were carried out using standard procedures (Maniatis et.al. 1989). Telomere length was analyzed as described previously for Tetrahymena [Larson 50 Cell, 477, 1987].
Telomere lengths in cells grown in the presence of the different analogs were monitored by Southern blot analysis of DNA samples extracted at a series of time points during the subculturings. The telomeres of cells grown vegetatively in 1 and 5 mM AZT in 2% PPYS medium were reproducibly shortened by up to an average of 170 base pairs compared with the control cultures grown in 2% PPYS in the absence of the drug (FIG. 21A and B). This shortening of telomeres occured in a concentration-dependent manner (FIG. 21B), with at least 50% of the maximal shortening effect occurring by 10 μM AZT, the lowest concentration tested.

Structure (SMILES): Nc1nc2c(ncn2COCCO)c(=O)[nH]1 [Acyclo-G, Acycloguanosine]
% CHX-R (Tetrahymena cells [1]; first block for the analog): 75%
% CHX-R (Tetrahymena cells [1]; second block for the analog): 69%
# CHX-R (Tetrahymena cells [1]; 0.017 mM analog, first block for the analog, number of cycloheximide-resistant wells): 80
irreversible disruption of macronuclear development (Tetrahymena cells [1]; analog present during conjugation): little or no irreversible disruption

IC50 ([2]; standard assay, 32P-dGTP / 32P-NTP incorporation, 30 min at 30° C., read-out: concentration at which 50% inhibition of incorporation of 32P label occurred): 0.7 µM
position on the telomerase RNA template of strongest chain termination [2]: 4
Structure (SMILES): Nc1nc2c(ncn2[C@@H]2O[C@H](COP(=O)(O)OP(=O)(O)OP(=O)(O)O)[C@@H](O)[C@@H]2O)c(=O)[nH]1 [Ara-GTP, arabinofuranyl-guanosine triphosphate]

Structure (SMILES): [H]/N=C(/N)N[C@H]1[C@H](O)[C@@H](O)[C@H](O[C@@H]2O[C@@H](C)[C@](O)(C=O)[C@H]2O[C@@H]2O[C@@H](CO)[C@H](O)[C@@H](O)[C@@H]2NC)[C@@H](N/C(N)=N\[H])[C@@H]1O [Streptomycin sulfate, streptomycin sulfate]
effect on amount and average length of elongation products ([2]; 40 mM, 40 mM sodium sulfate control little decrease): dramatically reduced

Structure (SMILES): Cc1cn([C@H]2C[C@H](O)[C@@H](COP(=O)(O)OP(=O)(O)OP(=O)(O)O)O2)c(=O)[nH]c1=O [TTP]
Km [2]: ~5 µM

Structure (SMILES): Cc1cn([C@H]2C=C[C@@H](CO)O2)c(=O)[nH]c1=O [d4T, 3′ deoxy-2′,3′-didehydrothymidine]
telomere length (Tetrahymena cells [3]): produced shortened telomeres

Structure (SMILES): Nc1nc2c(ncn2[C@H]2C[C@H](O)[C@@H](COP(=O)(O)OP(=O)(O)OP(=O)(O)O)O2)c(=O)[nH]1 [dGTP]
Km [2]: 1 to 2 µM

Structure (SMILES): Nc1ncnc2c1ncn2[C@H]1CC[C@@H](COP(=O)(O)OP(=O)(O)OP(=O)(O)O)O1 [ddATP]
effect on the telomerase reaction [2]: no significant effects

Structure (SMILES): Nc1ccn([C@H]2CC[C@@H](COP(=O)(O)OP(=O)(O)OP(=O)(O)O)O2)c(=O)n1 [ddCTP]
effect on the telomerase reaction [2]: no significant effects

IC50 [2]: < 0.1 µM
Structure (SMILES): Nc1nc2c(ncn2[C@H]2CC[C@@H](COP(=O)(O)OP(=O)(O)OP(=O)(O)O)O2)c(=O)[nH]1 [ddGTP]

Structure (SMILES): O=c1[nH]cnc2c1ncn2[C@H]1CC[C@@H](COP(=O)(O)OP(=O)(O)OP(=O)(O)O)O1 [ddITP, dideoxyinosine triphosphate]
IC50 [2]: 3 µM
position on the telomerase RNA template of strongest chain termination [2]: 5

Structure (SMILES): Cc1cn([C@H]2CC[C@@H](COP(=O)(O)OP(=O)(O)OP(=O)(O)O)O2)c(=O)[nH]c1=O [ddTTP]
IC50 [2]: 5 µM

Structure (SMILES): CO[C@H]1/C=C/O[C@@]2(C)Oc3c(C)c(O)c4c(O)c(c(/C=N/N5CCN(C)CC5)c(O)c4c3C2=O)NC(=O)/C(C)=C\C=C\[C@H](C)[C@H](O)[C@@H](C)[C@@H](O)[C@@H](C)[C@H](OC(C)=O)[C@@H]1C [rifampin]
effect on quantitative incorporation of label and banding pattern ([2]; concentrations up to 100 μg/ml): did not affect the quantitative incorporation of label or change the banding pattern
